1 compound from patent publication US11707539B2, “FAP-targeted radiopharmaceuticals and imaging agents, and uses related thereto” (Trustees of Tufts College, priority 2020, dated 2023) can be followed below.

This series can be described thus: Radiochemical purity by HPLC on storage at room temperature. The format is physicochemical. To be noted: three days at room temperature. The protocol: The labeling efficiency was analyzed by instant thin layer chromatography (iTLC) and was typically >98%. For iTLC analysis, 1 μL of diluted labeling solution was applied to a strip of iTLC-SA chromatography paper (Agilent P/N A120B12, 114×2.5 mm) and developed in 0.1M citrate buffer (8 cm solvent migration) to assess free ^177Lu (Rf >0.5) and [^177Lu]-6555 (Rf ˜0). The iTLC strips were analyzed using an Eckert & Ziegler AR-2000 Radio-TLC Imaging Scanner. The radiochemical purity was analyzed by high performance chromatography (HPLC) and was typically >90%. Briefly, the product was analyzed using a Phenomenex Luna 3.0 μm C18(2), 100A, 150 mm×4.6 mm column. Eluent A: 50 mM ammonium acetate in water, eluent B: acetonitrile. Gradient: 2% B from 0-5 min; 2% to 26% B from 5-20 min; 26% to 98% B from 20-25 min; 98% to 2% B from 25-26 min; 2% B from 26-30 min. Flow rate: 1.0 mL/min, Radio-HPLC detector: NaI (Eckert & Zeigler FC-1000), UV: 215 nm. The radiochemical purity remained >90% for three days at room temperature.
The above depicted radiopharmaceutical [^177Lu]-6952 can be prepared as described in Example 19 using the radiochemical precursor 6952 (Example 14 above). The labeling efficiency was analyzed by instant thin layer chromatography (iTLC) and was typically >98%. […] The iTLC strips were analyzed using an Eckert & Ziegler AR-2000 Radio-TLC Imaging Scanner. The radiochemical purity was analyzed by high performance chromatography (HPLC) and was typically >90%. Briefly, the product was analyzed using a Phenomenex Luna 3.0 m C18(2), 100A, 150 mm×4.6 mm column. […]
The labeling efficiency was analyzed by instant thin layer chromatography (iTLC) and was typically >95%. […] The iTLC strips were analyzed using an Eckert & Ziegler AR-2000 Radio-TLC Imaging Scanner. The radiochemical purity was analyzed by high performance chromatography (HPLC) and was typically >95%. Briefly, the product was analyzed using a Phenomenex Luna 3.0 m C18(2), 100Å, 150 mm×4.6 mm column. […]
The labeling efficiency was analyzed by instant thin layer chromatography (iTLC) and was typically >95%. […]

Some results are limits rather than exact numbers.

With `C[C@@H](NC(=O)[C@H]1CC[C@H](CNC(=O)CN2CCN3CCN4CCN(CC2)CC(=O)[O][Lu]([O]C(=O)C3)[O]C(=O)C4)CC1)C(=O)N1CCC[C@H]1B(O)O` [[^177Lu]-6952], the radiochemical purity remained is listed as > 90%.
